Reference: patent publication US20160120864A1, “Novel Pyrrole Derivatives” (priority 2013, published 2016)
pIC50: −log10 of the molar value. Structures can show the parent of a compound that is named as a salt.

Legend:
[1] = molecular target: pneumolysin (Streptococcus pneumoniae serotype 2, UniProt Q04IN8); test: Inhibition of the haemolytic activity of pneumolysin (sheep erythrocytes); type: cell-based
Method: A. Primary In Vitro Assay: Inhibition of the Haemolytic Activity of Pneumolysin
The basis of this assay is that when pneumolysin is added to red blood cells, it induces their lysis and leads to the release of haemoglobin. In the presence of an inhibitory compound, pneumolysin-induced lysis is abolished, the red blood cells pellet at the bottom of the microtitre plate well and the supernatant is clear. However, if the compound is not inhibitory, the red blood cells are lysed and haemoglobin is released into the supernatant.
Test compound solutions (typically at 5 mM in DMSO) were diluted 1:1 in 100% DMSO. The compounds were then two-fold serially diluted in 100% DMSO across 11 wells of 96-well round-bottomed microtitre plate. PBS was then added to all the wells to achieve a 1:10 dilution of the compound in PBS. Pneumolysin was then added at a concentration equal to its LD100. Plates were then incubated at 37° C. for 30-40 min. After the incubation period, an equal volume of 4% (v/v) sheep erythrocyte suspension was added to each well and the plates incubated again at 37° C., for at least 30 min. […] Following the incubation with the erythrocytes, the Absorbance at 595 nm of each well was measured and the data used to determine the IC50 for each test compound. The IC50 values were determined using non-linear regression curve fitting. […]

[2] = physchem; type: physicochemical; details: for solubility: aqueous buffer, thermodynamic from solid, PBS pH 7.2; for Solubility in aqueous formulations compatible with intravenous dosing (in words): aqueous formulations at the desired concentrations
Method: PBS solutions for solubility and stability studies were prepared by dissolving 1 Oxoid™ tablet (obtained from Thermo Scientific) in deionised water (100 mL).
Solubility studies were performed by charging a vial with 5-10 mg of compound followed by the addition of PBS solution to achieve a concentration of 100 mg/ml. If solubility was not observed, the solution was diluted to concentrations of 50 mg/ml, 25 mg/ml and 4 mg/ml consecutively until complete solubility was observed.

[3] = physchem; type: physicochemical; details: buffer; PBS, 37.5° C.; read-out: Chemical stability in aqueous formulation (t½) (converted)
Method: (§1) Stability studies were carried out by dissolving 1-2 mg of compound in DMSO (1 mL) followed by addition of 0.4 mL of the resulting solution to stirred PBS solution (9.6 mL) at 37.5° C. A sample (ca. 0.5 mL) was immediately taken for HPLC analysis. Further samples were then taken for analysis at various timepoints thereafter. Half-lives were determined from the decrease in concentration of compound with respect to time.
as §1, with “performed” for “carried out”, “ml)” for “mL)”, “ml” for “mL”, “PBS” for “PBS solution”, “(-j” for “(ca.”, “time-points” for “timepoints”

[4] = type: in vitro ADME; details: mouse plasma, 37° C., starting 10 μM
Method: The samples were then analysed by LC-MS/MS to obtain the amount of active compound appearing and prodrug derivative remaining over time.
The prodrug derivative of the invention was assessed in mouse plasma stability assay at a concentration of 10 μM. Test compounds were diluted in DMSO to a final stock concentration of 10 mM. For the purpose of the assay, the stocks prepared were further diluted in DMSO to a concentration of 400 μM and 5 μL were added to 195 μL of mouse plasma (pH 7.4) and then incubated at 37° C. The final concentration of DMSO in the plate was 2.5% (v/v). Reactions were terminated at 0, 15, 30, 60 and 120 min after incubation by adding 400 μL of acetonitrile containing 0.55 μM metoprolol and 1% (v/v) formic acid. The plate was then centrifuged at 3000 rpm, for 45 min, at 4° C. 80 μL of supernatant were transferred into a conical bottom 96 well glass coated plate. 40 μL of water were added prior to analysis for prodrug derivative and active species by LC-MS/MS. This assay was performed by a contract research organisation, Cyprotex Discovery Limited, UK, at the request of the inventors at Leicester.
The quantification of the prodrug compound remaining and the parent active compound appearing was performed as follows:
(1) The parent active compound was quantified using a 6 point calibration curve prepared in deactivated mouse plasma. (2) The percentage of prodrug compound remaining at each time point relative to 0 min sample was calculated from LC-MS/MS peak area ratios (compound peak area/internal standard peak area). This percentage was then used to determine the concentration of the prodrug compound at each time point in reference to the starting concentration (10 μM) at time 0 min.

pneumolysin, sequence (Q04IN8 whole entry): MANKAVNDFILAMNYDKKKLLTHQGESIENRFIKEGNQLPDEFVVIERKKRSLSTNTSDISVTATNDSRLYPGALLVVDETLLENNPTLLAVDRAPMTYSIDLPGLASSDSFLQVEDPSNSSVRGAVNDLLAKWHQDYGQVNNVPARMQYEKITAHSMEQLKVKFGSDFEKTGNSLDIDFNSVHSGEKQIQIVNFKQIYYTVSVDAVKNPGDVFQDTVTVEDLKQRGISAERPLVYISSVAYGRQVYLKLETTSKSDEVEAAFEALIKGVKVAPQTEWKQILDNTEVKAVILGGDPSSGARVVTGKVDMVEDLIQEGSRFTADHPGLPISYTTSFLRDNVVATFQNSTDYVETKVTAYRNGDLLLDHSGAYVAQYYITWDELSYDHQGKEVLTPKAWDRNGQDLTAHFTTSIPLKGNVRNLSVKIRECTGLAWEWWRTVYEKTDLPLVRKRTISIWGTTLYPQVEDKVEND

Row | Compound | pIC50 [1] | solubility [2] | Solubility in aqueous formulations compatible with intravenous dosing (in words) [2] | half-life [3] | Prodrug (UL7-002) concentration remaining, t0 min. ([4]; 0 min) | Prodrug (UL7-002) concentration remaining, t15 min. ([4]; 15 min) | Prodrug (UL7-002) concentration remaining, t30 min. ([4]; 30 min) | Prodrug (UL7-002) concentration remaining, t60 min. ([4]; 60 min) | Prodrug (UL7-002) concentration remaining, t120 min. ([4]; 120 min)
1 | COc1ccc(-n2c(C(=O)N3CCN(C)CC3)c(OC(=O)C(C)C)c(OC(=O)C(C)C)c2C(=O)N2CCN(C)CC2)cc1 [UL7-002, 1-(4-Methoxyphenyl)-2,5-bis(4-methylpiperazine-1-carbonyl)-1H-pyrrole-3,4-diyl bis(2-methylpropanoate)dihydrochloride] | 5.17 | ≥ 100 mg/mL | readily soluble | 47 h | 10.00 µM | 0.00 µM | 0.01 µM | 0.00 µM | 0.00 µM
2 | COc1ccc(-n2c(C(=O)N3CCN(C)CC3)c(O)c(O)c2C(=O)N2CCN(C)CC2)cc1 [UL7-001, (3,4-Dihydroxy-1-(4-methoxyphenyl)-1H-pyrrole-2,5-diyl)bis((4-methylpiperazin-1-yl)methanone)] | 6.52 | ≥ 100 mg/mL | readily soluble | < 0.5 h | – | – | – | – | –
